Source: US20240423961A1, “1H-1,2,3-TRIAZOLE-4-CARBOXYLIC ACIDS FOR TREATMENT OF HYPEROXALURIA AND KIDNEY STONES” (CANTERO THERAPEUTICS, INC., priority 2021, published 2024)

Columns and labels:
[1] = Phase 1 SAD/MAD study: safety and tolerability (adverse events, vital signs, ECG, laboratory tests); type: in vivo, human
Procedure: A Phase 1 clinical study is performed to assess the safety and dosing of Compound 1a. This Phase 1 study consists of two parts. In Part A, healthy adults randomized 3:1 (active:placebo) receive a single dose of orally administered Compound 1a or matching placebo in six (6) ascending dose groups. In Part B, healthy adults randomized 3:1 (active:placebo) received multiple doses of orally administered Compound 1a or matching placebo in six (6) ascending dose groups. Safety and tolerability were assessed by the incidence of adverse events, vital signs, electrocardiograms, and clinical laboratory tests. Pharmacokinetics and pharmacodynamics (changes in plasma and urine glycolate) were measured using validated bioanalytical assays.
Study Design: The study was approved by the Advarra Institutional Review Board (Columbia, MD). All participants provided written informed consent. The trial was conducted at a single center (Celerion, Tempe, Arizona) according to the Good Clinical Practice guidelines of the International Conference on Harmonization and the World Health Organization Declaration of Helsinki. The study was a randomized, double-blind, placebo-controlled, single and multiple ascending dose study. The primary objective of the study was to evaluate the safety and tolerability of single and multiple doses of Compound 1a administered to healthy adult volunteers. The secondary objectives were to characterize the pharmacokinetics (PK) of Compound 1a and to describe the pharmacodynamic (PD) properties in healthy adult volunteers. The study also evaluated the effect of food on the PK of Compound 1a.
Subject disposition: Six cohorts of 6 to 8 subjects each (N=up to 48) were administered single doses of 40, 120, 360, 1,000, 2,000, and 3,000 mg of Compound 1a in Part A under fasting conditions. Following a 2-week washout, subjects in the 1,000 mg cohort were administered a second 1,000 mg single dose following a high-fat breakfast. Six cohorts of 8 healthy subjects each were administered multiple doses of 75 mg […] (qd), 125 mg every 12 hours (q12 h), 500 mg q12 h, 500 mg qd, 750 mg qd, and 1,000 mg qd for 7 days in the MAD Part B (FIG. 1).

glycolate oxidase (GO) = target: T1, glycolate oxidase (GO) (Homo sapiens, UniProt Q9UJM8); test: Phase 1 SAD/MAD study: plasma glycolate as measure of target engagement; type: in vivo
T1 construct: healthy adult volunteers received single doses of Compound 1a; from tissue; host or cells: liver of healthy adult human volunteers (in vivo, Phase 1 study)
T1 sequence (Q9UJM8 1-370): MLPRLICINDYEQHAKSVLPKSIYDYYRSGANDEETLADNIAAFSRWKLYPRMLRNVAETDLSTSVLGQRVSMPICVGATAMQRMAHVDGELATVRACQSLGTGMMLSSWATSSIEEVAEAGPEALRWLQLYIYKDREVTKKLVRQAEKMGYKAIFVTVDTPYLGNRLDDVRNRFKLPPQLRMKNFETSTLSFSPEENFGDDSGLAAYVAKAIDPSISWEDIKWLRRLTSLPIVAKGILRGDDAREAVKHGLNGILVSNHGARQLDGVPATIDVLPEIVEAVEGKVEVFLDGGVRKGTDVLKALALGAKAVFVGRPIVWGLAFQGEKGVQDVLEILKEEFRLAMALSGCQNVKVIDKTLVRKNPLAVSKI
Procedure: Pharmacodynamics: Acidified human K2-EDTA plasma samples were analyzed for oxalic acid and glycolic acid by a validated method over a range of 8.00 to 120 μM for oxalic acid and 5.00 to 625 μM for glycolic acid based on the analysis of 50 μL of sample. Human plasma containing oxalic acid, glycolic acid and internal standards, ^13C2-oxalic acid and D2-glycolic acid, was derivatized after protein precipitation then extracted using liquid-liquid extraction and analyzed by a Sciex API 4000 LC-MS-MS equipped with an HPLC column. The peak area of the m/z 224.1→152.1 oxalic acid product ion was measured against the peak area of the m/z 226.1→152.1 13C2-oxalic acid internal standard product ion. The peak area of the m/z 210.1→107.0 glycolic acid product ion was measured against the peak area of the m/z 212.1→107.0 D2-glycolic acid internal standard product ion. Quantitation was performed using a weighted 1/x2 linear least squares regression analysis generated from calibration standards prepared on the day of extraction.
Pharmacodynamics of Compound 1a: As a measure of target engagement, plasma glycolate levels were assessed in Part A and Part B. In Part A, healthy adult volunteers received single doses of Compound 1a at 40, 120, 360, 1,000, 2,000, and 3,000 mg with increases in plasma glycolate observed (FIG. 3A). At all doses, mean maximal plasma glycolate concentrations exceeded the upper limit of normal (ULN) of 14 μM, reaching a mean maximum concentration of >90 μM at doses above 1,000 mg, which was sustained for 24 hours. Median time to recovery (plasma glycolate less than or equal to ULN) after a single dose was less than 72 hours.
In Part B, healthy adult volunteers received multiple doses of Compound 1a at 75 mg qd, 125 mg q12 h, 500 mg q12 h, 500 mg qd, 750 mg qd, and 1000 mg qd. As with Part A, mean maximal plasma glycolate concentrations exceeded the ULN at all doses on day 1 to a range of 50 to 100 μM and further increased on day 7 to a range of 100 to 200 μM.

[2] = Part A single ascending dose, 40 mg (n = 7)
[3] = Part A single ascending dose, 120 mg (n = 8)
[4] = Part A single ascending dose, 360 mg (n = 6)
[5] = Part A single ascending dose, 1,000 mg (n = 8)
[6] = Part A single ascending dose, 2,000 mg (n = 8)
[7] = Part B multiple ascending dose, 125 mg q12 h (n = 8)
[8] = Part B multiple ascending dose, 500 mg q12 h (n = 8)
[9] = Part B multiple ascending dose, 500 mg qd (n = 8)
[10] = Part A, single doses above 1,000 mg

Structure (SMILES): O.O=C([O-])c1nn[nH]c1Oc1ccc(-c2ccc(C3CC(F)(F)C3)cc2)cc1.[Na+] [Compound 1a, sodium 5-((4′-(3,3-difluorocyclobutyl)-[1,1′-biphenyl]-4-yl)oxy)-1H-1,2,3-triazole-4-carboxylate monohydrate]
- AEs leading to study discontinuation ([1]; Part A and Part B): no AEs leading to study discontinuation
- dose-limiting toxicities ([1]; Part A and Part B): No dose-limiting toxicities were observed
- intensity of AEs ([1]; Part A and Part B): all were mild to moderate in intensity
- post dose electrocardiogram findings ([1]; Part A and Part B): nor were there clinically important post dose electrocardiogram findings
- safety laboratory tests ([1]; Part A and Part B): no clinically significant changes or trends observed
- serious or severe AEs ([1]; Part A and Part B): No serious or severe AEs were reported
- AEs [1, 2]: 10
- SAEs [1, 2]: 0
- AEs [1, 3]: 1
- SAEs [1, 3]: 0
- AEs [1, 4]: 0
- SAEs [1, 4]: 0
- AEs [1, 5]: 4
- SAEs [1, 5]: 0
- AEs [1, 6]: 3
- SAEs [1, 6]: 0
- AEs [1, 7]: 6
- SAEs [1, 7]: 0
- AEs [1, 8]: 12
- SAEs [1, 8]: 0
- AEs [1, 9]: 1
- SAEs [1, 9]: 0
- tolerability ([1]; single doses up to 3,000 mg and multiple doses up to 2,000 mg per day (1,000 mg qd)): well tolerated
- time to inhibition of glycolate oxidase (GO) with increased plasma glycolate concentrations (glycolate oxidase (GO); FIG. 3 legend): ≤ 2 h
- mean maximal plasma glycolate concentrations (exceeded ULN) (glycolate oxidase (GO); Part A, all single doses 40 to 3,000 mg): > 14 µM
- duration for which mean maximum plasma glycolate concentration was sustained (glycolate oxidase (GO); [10]): 24 h
- mean maximum plasma glycolate concentration (glycolate oxidase (GO); [10]): > 90 µM
- levels of plasma glycolate compared with lumasiran (glycolate oxidase (GO); Part B, all doses): significantly higher than those observed with lumasiran at 3 mg/kg or 6 mg/kg
- Median time to recovery (plasma glycolate less than or equal to ULN) (glycolate oxidase (GO); after a single dose): less than 72 hours
- plasma glycolate concentrations at steady state (glycolate oxidase (GO); steady state, multiple doses): comparable to those measured in case reports of individuals with germline HAO1 knockout
